Legend:
KPMM2 cells = experiment: Human myeloma cell-implanted SCID mouse system, dose dependency of antibody (Example 3): survival, serum M protein; format: in vivo; conditions: for Life-elongation ratio (%): vs drug non-administration group; for Survival period: mean±standard error
Description: For evaluation of antitumor effects, a xenograft model animal that was produced by implanting KPMM2 cells via the tail vein was used as in Working example 2. Thus, single-cell suspensions which were prepared by passing through a mesh KPMM2 cells that were minced after having been maintained in vivo were implanted at 0.2 ml per mouse via the tail vein (6×10^6 cells per mouse). The day when the cells were implanted was set at day 0.
They were given to mice at 0.1 ml per 10 g body weight of mouse via the tail vein on day 14 to create the 50, 10, 2, and 0.4 mg/kg administration groups.
Melphalan (L-PAM, manufactured by Sigma Chemical Co.) was used as a suspension of 0.1 mg/ml in 0.2% CMC solution in water. This was given orally at 0.1 ml per 10 g body weight of mouse (1 mg/kg weight) for 5 consecutive days starting on day 7.
The experiment was carried out on the following 10 groups: (A) the melphalan and the antibody non-administration group; (B) the melphalan single-drug administration group; (C) the each dose of antibody single-drug administration group , 4 groups (50, 10, 2, 0.4 mg/kg weight); and, (D) the melphalan and the each dose of antibody combined administration group, 4 groups (50, 10, 2, 0.4 mg/kg weight). The non-administration group included 12 mice per group, the melphalan administration group 6 mice per group, whereas each of the other groups included 7 mice. Furthermore, mice of the same lineage and purchased on the same day were raised without implanting a tumor, and the animals were used as negative control for M protein detection. The amount of M protein was calculated as described in Example 2.
Indices of the drug efficacy included the survival period, and the amount of M proteins on day 30, day 35, and day 42. For analysis of the survival period, a generalized Wilcoxon's test (SPSS for Windows ver. 6, SPSS inc.) was used. A significance level of 5% or lower was considered to be significant. For analysis of the amount of M protein in the serum, the ANOVA (Analysis of variance, SPSS for windows ver. 6, SPSS inc.) was first conducted. After confirming significance, Bonferroni method (SPSS for windows ver. 6, SPSS inc.) was used, and a significance level of 5% or lower was considered to be significant.

[1] = system: KPMM2, a human myeloma cell line; experiment: Human myeloma cell-implanted SCID mouse system (Example 2): survival, disease-free ratio, serum M protein; format: in vivo; conditions: for Life-elongation ratio* (%): 100 × (drug administration group/drug non-administration group); for Survival period: mean ± standard error; for None disease ratio: survival ratio without disease on day 120
Excerpt: For evaluation of antitumor activity, a xenograft model was used. Thus, KPMM2, a human myeloma cell line derived from ascites of a patient with multiple myeloma was implanted to a male SCID mouse (FOX CHASE C. B17/Icr-Scid Jcl, purchased from Nippon Klea) via the tail vein. At this time, the tumor cells grow in the bone marrow and come to produce myeloma protein (M protein) in the peripheral blood. Furthermore, this model system is very close to an actual clinical condition in that it develops major symptoms of multiple myeloma in humans such as bone disorders, elevated blood calcium, and the like.
Single cell suspension of myeloma cells for implantation was prepared by passing through a mesh the well minced KPMM2 cells that have been maintained in vivo. Cell density was adjusted to 3×10^7/ml, which was implanted at 0.2 ml per mouse via the tail vein ([…]). The day when the cells were implanted was set at day 0.
This was given to mice at 0.2 ml per animal via the tail vein on day 8 (1 mg per mouse).
Melphalan (L-PAM, manufactured by Sigma Chemical Co.) that was suspended at 0.3 or 0.1 mg/ml in 0.2% CMC (carboxymethylcellulose) solution in water was used. This was given orally at 0.1 ml per 10 g body weight of mouse (3 or 1 mg/kg weight) for 5 consecutive days starting on day 1.
The experiment was carried out on the following six groups: (1) the melphalan and antibody non-administration group; (2) the 1 mg/kg melphalan single-drug administration group; (3) the 3 mg/kg melphalan single-drug administration group; (4) antibody single-drug administration group; (5) the 1 mg/kg melphalan and antibody combined administration group; and (6) the 3 mg/kg melphalan and antibody combined administration group. Group 1 included 9 mice, whereas each of the other groups included 7 mice. Furthermore, tumor was not implanted on mice of the same lineage and purchased on the same day, which were used as negative control for M protein detection.
Indices of the drug efficacy included the survival period, the survival ratio without disease on day 120, and the amount of M protein on day 30. For analysis using a survival curve, a generalized Wilcoxon's test (SPSS for windows ver. 6, SPSS inc.) was used. A significance level of 5% or lower was considered to be significant.
Serum M protein was detected as human IgG using the ELISA method. First, mouse serum was dispensed into a 96-well micro plate that had previously been coated with anti-human IgG antiserum and was allowed to stand. Then alkaline phosphatase-conjugated […] was bound thereto, and SIGMA104 phosphatase substrate was added for color development, absorbance of which was read using a microplate reader. M protein content in the serum was calculated using the standard curve obtained from normal human IgG.

[2] = hPM-1 1 mg per mouse via the tail vein on day 8, CMC control
[3] = melphalan 1 mg/kg orally, 5 days from day 1, no antibody
[4] = melphalan 3 mg/kg orally, 5 days from day 1, no antibody

## hPM-1: reshaped human PM-1 antibody: CDRs of mouse anti-IL-6 receptor antibody PM-1 grafted to human antibody, produced in CHO cells
KPMM2 cells; antibody single-drug administration, 50, 10, 2, 0.4 mg/kg
  life elongation effect (survival period): none of the doses in the antibody single-drug administration group gave a significant life elongation effect
KPMM2 cells; antibody single-drug administration, 50, 10, 2, 0.4 mg/kg on day 14 (FIG. 11)
  amount of M protein in the serum on day 30: none of the doses significantly inhibited the amount of M protein
KPMM2 cells; hPM-1 0.4 mg/kg on day 14, CMC control
  Life-elongation ratio (%): 98%
KPMM2 cells; hPM-1 0.4 mg/kg via the tail vein on day 14, CMC control
  Survival period: 40.3 ± 1.2
KPMM2 cells; hPM-1 2 mg/kg on day 14, CMC control
  Life-elongation ratio (%): 101%
KPMM2 cells; hPM-1 2 mg/kg via the tail vein on day 14, CMC control
  Survival period: 41.4 ± 1.3
KPMM2 cells; hPM-1 10 mg/kg on day 14, CMC control
  Life-elongation ratio (%): 99%
KPMM2 cells; hPM-1 10 mg/kg via the tail vein on day 14, CMC control
  Survival period: 40.4 ± 1.7
KPMM2 cells; hPM-1 50 mg/kg on day 14, CMC control
  Life-elongation ratio (%): 101%
KPMM2 cells; hPM-1 50 mg/kg via the tail vein on day 14, CMC control
  Survival period: 41.6 ± 1.0
[1]; antibody single-drug administration, 1 mg per mouse on day 8 (FIG. 7)
  life elongation effect as compared to the non-administration group: no life elongation effect
[1]; [2]
  Life-elongation ratio* (%): 118%
  Survival period: 55.1 ± 5.2
[1]; hPM-1 1 mg per mouse on day 8, CMC control
  None disease ratio: 0/7

## NC(Cc1ccc(N(CCCl)CCCl)cc1)C(=O)O (stereo not drawn) [melphalan]
KPMM2 cells; melphalan 1 mg/kg orally 5 days from day 7, no antibody
  Life-elongation ratio (%): 142%
KPMM2 cells; melphalan 1 mg/kg orally, 5 consecutive days from day 7, no antibody
  Survival period: 58.2 ± 1.8
KPMM2 cells; melphalan 1 mg/kg, no antibody, melphalan single-drug administration group as control
  Life-elongation ratio (%), value in parentheses: 100%
KPMM2 cells; melphalan alone, 1 mg/kg
  life elongation effect (survival period): significant life elongation effect
KPMM2 cells; melphalan single-drug administration, 1 mg/kg (FIG. 11)
  amount of M protein in the serum on day 30: significantly inhibited
[1]; 1 mg/ml melphalan administration group (FIG. 7)
  life elongation effect as compared to the non-administration group: no life elongation effect
[1]; 3 mg/kg melphalan single-drug administration (FIG. 9)
  life elongation effect as compared to the non-administration group: significant life elongation effect
[1]; melphalan 1 mg/kg orally, 5 consecutive days from day 1, no antibody
  Survival period: 47.3 ± 3.1
[1]; [3]
  Life-elongation ratio* (%): 101%
  None disease ratio: 0/7
[1]; melphalan 3 mg/kg orally, 5 consecutive days from day 1, no antibody
  Survival period: 84.1 ± 9.1
[1]; [4]
  Life-elongation ratio* (%): 175%
  None disease ratio: 2/7

Reference: patent US7566453B2, “Methods for treating melanomas” (Chugai Seiyaku Kabushiki Kaisha, priority 1998, dated 2009)
